Here are results for four cell lines from the supplement of paper PMC10307832.

Common to all, as to test: relative viability (nuclei count vs DMSO), 5 days (fraction); higher = more cells survive
Compound in experiment [1]: CCN1CCN(c2ccc(Nc3cc(N(C)C(=O)Nc4c(Cl)c(OC)cc(OC)c4Cl)ncn3)cc2)CC1 [BGJ398] + Cc1cc(Nc2cc(N3CCN(C)CC3)nc(Sc3ccc(NC(=O)C4CC4)cc3)n2)n[nH]1 [Tozasertib] (partner 0.1 µM)
A digest of the protocol:
(§1)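 Cells from lung cancer lines were seeded into 1536-well plates and, one day later, dosed by pin tool. Treatments were either a single drug or a fixed dose of an anchor drug with five library-drug doses (not always all listed) in √10 steps. After 5 days, nuclei were stained in a one-step fixation (final 0.05% Triton X-100, 1% formaldehyde, 1 ug/ml Hoechst) and counted on 4× images, and relative viability is the treated-to-vehicle nuclei ratio, as the median of duplicate plates.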

Compound in experiment [2]: CCN1CCN(c2ccc(Nc3cc(N(C)C(=O)Nc4c(Cl)c(OC)cc(OC)c4Cl)ncn3)cc2)CC1 [BGJ398] + CC(C)C[C@H](NC(=O)[C@H](Cc1ccccc1)NC(=O)c1cnccn1)B(O)O [Bortezomib] (partner 0.002 µM)
A digest of the protocol: as §1

Compound in experiment [3]: CCN1CCN(c2ccc(Nc3cc(N(C)C(=O)Nc4c(Cl)c(OC)cc(OC)c4Cl)ncn3)cc2)CC1 [BGJ398] + Nc1nc2[nH]cc(CCc3ccc(C(=O)N[C@@H](CCC(=O)O)C(=O)O)cc3)c2c(=O)[nH]1 [Pemetrexed] (partner 0.2 µM)
A digest of the protocol: as §1

Compound in experiment [4]: C1=CC2=NC=CN=C2C=C1/C=C/3\C(=O)NC(=O)S3 + Cc1nc(Nc2ncc(C(=O)Nc3c(C)cccc3Cl)s2)cc(N2CCN(CCO)CC2)n1 [Dasatinib] (partner 0.075 µM)
A digest of the protocol: as §1

As to NCI-H1734, the relative viability in experiment [1] (first compound 0.01 µM) was 0.259; in experiment [1] (first compound 0.03162 µM), 0.266; in experiment [1] (first compound 0.1 µM), 0.222; in experiment [1] (first compound 0.3162 µM) it was 0.258; in experiment [1] (first compound 1 µM) it was 0.26; in experiment [2] (first compound 0.01 µM), 0.95. For the same cell line, the relative viability in experiment [2] (first compound 0.03162 µM) is 0.889; in experiment [2] (first compound 0.1 µM), 0.933; in experiment [2] (first compound 0.3162 µM), 0.805; in experiment [2] (first compound 1 µM), 0.825; in experiment [3] (first compound 0.01 µM), 0.405; in experiment [3] (first compound 0.03162 µM), 0.403. Besides, the relative viability in experiment [3] (first compound 0.1 µM) was 0.405; in experiment [3] (first compound 0.3162 µM), 0.378; in experiment [3] (first compound 1 µM) it was 0.415; in experiment [4] (first compound 0.02 µM), 0.463; in experiment [4] (first compound 0.06325 µM) it was 0.468; in experiment [4] (first compound 0.2 µM) it was 0.467. Further, the relative viability in experiment [4] (first compound 0.6325 µM) came to 0.41; in experiment [4] (first compound 2 µM), 0.269.
On to NCI-H1755, for which the relative viability was 0.563 in experiment [1] (first compound 0.01 µM); 0.646 in experiment [1] (first compound 0.03162 µM); 0.552 in experiment [1] (first compound 0.1 µM); 0.623 in experiment [1] (first compound 0.3162 µM); 0.546 in experiment [1] (first compound 1 µM); 1 in experiment [2] (first compound 0.01 µM). Besides, the relative viability in experiment [2] (first compound 0.03162 µM) was determined as 0.872; in experiment [2] (first compound 0.1 µM), 0.975; in experiment [2] (first compound 0.3162 µM), 0.921; in experiment [2] (first compound 1 µM) it was 0.875; in experiment [3] (first compound 0.01 µM) it was 0.438; in experiment [3] (first compound 0.03162 µM), 0.44. Also, the relative viability in experiment [3] (first compound 0.1 µM) stood at 0.428; in experiment [3] (first compound 0.3162 µM), 0.443; in experiment [3] (first compound 1 µM), 0.427; in experiment [4] (first compound 0.02 µM), 0.43; in experiment [4] (first compound 0.06325 µM) it was 0.371; in experiment [4] (first compound 0.2 µM), 0.448. The results for the relative viability in experiment [4] (first compound 0.6325 µM) and in experiment [4] (first compound 2 µM) were 0.355 and 0.257, respectively.
Turning to NCI-H1915, the relative viability in experiment [1] (first compound 0.01 µM) turned out to be 0.446; in experiment [1] (first compound 0.03162 µM), 0.438; in experiment [1] (first compound 0.1 µM), 0.433; in experiment [1] (first compound 0.3162 µM), 0.404; in experiment [1] (first compound 1 µM), 0.416; in experiment [2] (first compound 0.01 µM) it was 0.952. For the same cell line, the relative viability in experiment [2] (first compound 0.03162 µM) was 0.972; in experiment [2] (first compound 0.1 µM), 0.969; in experiment [2] (first compound 0.3162 µM), 0.977; in experiment [2] (first compound 1 µM) it was 0.864; in experiment [3] (first compound 0.01 µM) it was 0.511; in experiment [3] (first compound 0.03162 µM), 0.524. The relative viability came out at 0.571 in experiment [3] (first compound 0.1 µM); 0.458 in experiment [3] (first compound 0.3162 µM); 0.521 in experiment [3] (first compound 1 µM); 0.297 in experiment [4] (first compound 0.02 µM); 0.313 in experiment [4] (first compound 0.06325 µM); 0.332 in experiment [4] (first compound 0.2 µM). The relative viability in experiment [4] (first compound 0.6325 µM) was found to be 0.297; in experiment [4] (first compound 2 µM) it was 0.282.
Turning to NCI-H1975, the relative viability turned out to be 0.774 in experiment [1] (first compound 0.01 µM); 0.758 in experiment [1] (first compound 0.03162 µM); 0.695 in experiment [1] (first compound 0.1 µM); 0.5 in experiment [1] (first compound 0.3162 µM); 0.415 in experiment [1] (first compound 1 µM); 0.431 in experiment [2] (first compound 0.01 µM). Also, the relative viability in experiment [2] (first compound 0.03162 µM) is 0.405; in experiment [2] (first compound 0.1 µM), 0.404; in experiment [2] (first compound 0.3162 µM), 0.384; in experiment [2] (first compound 1 µM) it was 0.319; in experiment [3] (first compound 0.01 µM) it was 0.274; in experiment [3] (first compound 0.03162 µM), 0.309. The relative viability in experiment [3] (first compound 0.1 µM) turned out to be 0.301; in experiment [3] (first compound 0.3162 µM), 0.291; in experiment [3] (first compound 1 µM), 0.298; in experiment [4] (first compound 0.02 µM) it was 0.293; in experiment [4] (first compound 0.06325 µM) it was 0.38; in experiment [4] (first compound 0.2 µM), 0.369. In addition, the results for the relative viability in experiment [4] (first compound 0.6325 µM) and in experiment [4] (first compound 2 µM) were 0.334 and 0.318, respectively.
